Experimental findings from patent US4563471A, “4-Oxothiazolidin-2-ylidene-acetamide derivatives as CNS agents” (Warner-Lambert Company, priority 1983, dated 1986) are described below.

The subject of series [1] is male mice (NMRI). Put plainly: Isoniazide cramp. Type of series: in vivo, mouse. To be noted: po, 1.5 h, read-out: ED50 isoniazide cramp. How it is done:
(§1) In the case of all substances, there was used in the cramp test as vehicle 0.8% Methocel mucilage. The premedication time amounted to 30 minutes, insofar as nothing else is stated, and the administration took place i.g. in 20 ml/kg body weight.
(§2) Experimental animals were male mice (NMRI) with a body weight of 18 to 24 g., which were kept under controlled conditions. Twenty-four hours (if not stated otherwise) before commencement of the experiment, the feed was withdrawn but, up to the commencement of the experiment, the drinking water was left.
(§3) Per dosage, in each case ten animals were subjected to the test.

The subject of series [2] is male mice (NMRI). In words: Picrotoxin cramp. The settings on record: for ED50: Mus musculus, po, 20 min, read-out: ED50 picrotoxin cramp; for ED50 picrotoxin cramp: i.g., male mouse, picrotoxin 15 mg/kg s.c., observation 20 min. Type of series: in vivo, mouse. On the procedure: as §1, §2, §3
For a further series, the system named is DBA/2j mice. In words: Audiogenic cramps. Type of series: in vivo, mouse. The settings on record: po, 1 min, read-out: ED50 audiogenic cramp. How it is done: as §1
(§4) In the case of the audiogenic cramps, DBA/2j mice of male sex were used in a weight of 5-10 g which, on the day before the experiment, were removed and not fasted.
as §3
9. […] The observation time amount to one minute.

The nature of another series: in vivo. The settings on record: mouse, po. On the procedure: The determination of the acute toxicity was carried out on male mice (NMRI) with a body weight of 18-23 g. All experimental animals were fasted for 20 hours before commencement of the experiment. Water was available ad libitum. To each dosage group there belonged four animals. The dosage sequence was logarithmic. The test substances were administered intragastrally as suspension in 0.88% Methocel. The volume of administration amounted to 20 ml/kg.

The test system of series [3] is male mice (NMRI). In words: Pentetrazole cramp. The format is in vivo, mouse. To be noted: po, 20 min; for ED50: read-out: ED50 pentetrazole cramp. How it is done: as §1, §2, §3
Series [4] deals with male mice (NMRI). In words: Electroshock. The format is in vivo, mouse. How it is done:
as §1, §2, §3
3. […] For the transmission of the current impact, electrodes in the form of ear clips were fixed to the ears of the mouse. The period of the shock amounted to 0.3 s., the current strength to 35 mA (voltage self-regulating).

The subject of series [5] is male mice (NMRI). In words: Strychnine cramp. The format is in vivo, mouse. To be noted: for ED50: Mus musculus, po, 20 min, read-out: ED50 strychnine cramp; for ED50 strychnine cramp: i.g., male mouse, strychnine 1.1 mg/kg s.c., observation 20 min. On the procedure:
as §1, §2, §3
2. Strychnine cramp--As convulsive, there was used strychnine nitric cryst in a dosage of 1.1 mg/kg s.c., whereby the observation time amount to 20 minutes p.a.

The test system of series [6] is male mice (NMRI). In words: Bicuculline cramp. The format is in vivo. The settings on record: po, 20 min; i.g., male mouse; bicuculline 3.0 mg/kg s.c.; observation 20 min. On the procedure:
as §1, §2, §3
(§5) As positive standard, there were used phenytoin, valproate, GABA and baclofen.
6. Bicuculline cramp--Cramp agent was bicuculline purum. The dosage amounted to 3.0 mg/kg s.c. The observation time amount to 20 minutes.

The test system of series [7] is male mice (NMRI). In words: 3-Mercaptopropionic acid cramp (3-MPA). The format is in vivo, mouse. The settings on record: po, 0.5 h, read-out: ED50 3-MPA cramp. How it is done:
as §1, §2, §3
8. 3-Mercaptopropionic acid--3-Mercaptopropionic acid was diluted with physiological NaCl solution, adjusted with 6 mol/l NaOH to PH 7 and brought with NaCl solution to the end volume (10 ml/kg). The observation time amounted to 30 minutes.

Series [8] relates to male mice (NMRI). Put plainly: Semicarbazide cramp. Type of series: in vivo, mouse. To be noted: po, 1.5 h; for ED50: read-out: ED50 semicarbazide cramp. How it is done:
as §1, §2, §3
7. Semicarbazide cramp--Semicarbazide hydrochloride was used as cramp agent in a dosage of 1000 mg/kg s.c. The observation time amounted in each case to 90 minutes p.a.

In the next series the test system is mice. Put plainly: Comparative investigations of the anticonvulsive action in cramp models 1-9 (overall). Type of series: in vivo. The settings on record: all cramp models, i.g., male mouse. How it is done:
as §1, §2, §4, §3, §5

The mark [9] stands for this setting: i.g., male mouse, isoniazide 250 mg/kg s.c., observation 90 min.
Where [10] appears, read: i.g., male DBA/2j mouse, 10.9 KHz sound of 110 dBA, 30 s, observation 1 min.
Setting [11] is: i.g., male mouse, pentetrazole 140 mg/kg s.c., observation 20 min.
The mark [12] stands for this setting: po, 5 min, i.g., male mouse, 35 mA, 0.3 s, observation 5 min, read-out: ED50 electroshock.
[13] abbreviates: i.g., male mouse, 3-mercaptopropionic acid, observation 30 min.
[14] abbreviates: i.g., male mouse, semicarbazide hydrochloride 1000 mg/kg s.c., observation 90 min.

Where two headings read alike, the source gives them in different places. A value given as a limit tells only on which side of the number the result lay.

As to `CN1C(=O)CS/C1=C\C(=O)Nc1c(Cl)cccc1Cl` [2 (j), (Z)-(3-methyl-4-oxothiazolidin-2-ylidene)-N-(2,6-dichlorophenyl)-acetamide], the ED50 turned out to be 5 mg/kg in the series on male mice (NMRI) [1] (setting [9]); 1.52 mg/kg in the series with male mice (NMRI) [2]; 2 mg/kg with DBA/2j mice (setting [10]); 1.8 mg/kg with male mice (NMRI) [3] (setting [11]); 4.03 mg/kg with male mice (NMRI) [4] (setting [12]); 5.68 mg/kg in the series on male mice (NMRI) [5]. The ED50 with male mice (NMRI) [6] turned out to be 0.8 mg/kg; in the series on male mice (NMRI) [7] (setting [13]) it was 1.73 mg/kg; in the series with male mice (NMRI) [8] (setting [14]), 3.41 mg/kg. In addition, the 50% lethal dose (LD50) at 168 h in “in vivo” came out at 1600 mg/kg. For the same compound, the selectivity ratio in “in vivo” lay in the range of 282 to 2000.

On to `CCCC(CCC)C(=O)O` [valproate], for which the ED50 is 135 mg/kg with male mice (NMRI) [1] (Mus musculus), around 250 mg/kg with male mice (NMRI) [3] (Mus musculus), 154 mg/kg in the series on male mice (NMRI) [7] (Mus musculus) and 100 mg/kg with male mice (NMRI) [8] (Mus musculus). In addition, the ED50 picrotoxin cramp entry in the series with male mice (NMRI) [2] was “inactive”. In “in vivo”, the LD50 at 168 h was found to be 2000 mg/kg. In addition, the selectivity ratio in the series “in vivo” lay in the range of 8 to 14.8. Moreover, the ED40 in the series on male mice (NMRI) [4] (Mus musculus, po, 5 min, read-out: ED 40 electroshock) worked out at 200 mg/kg. In the series on male mice (NMRI) [5], the ED50 strychnine cramp result is “inactive”.

For the compound `O=C1NC(=O)C(c2ccccc2)(c2ccccc2)N1` [phenytoin], the ED50 amounted to 38 mg/kg in the series on male mice (NMRI) [1] (setting [9]); 200 mg/kg in the series on male mice (NMRI) [2]; 2.3 mg/kg in the series with DBA/2j mice (setting [10]); 12.5 mg/kg in the series on male mice (NMRI) [4] (Mus musculus, iv, 5 min, read-out: ED50 electroshock (i.v.)); 12.5 mg/kg in the series on male mice (NMRI) [6]. Further, the ED100 in the series with male mice (NMRI) [3] (ED 100, i.g., male mouse) turned out to be 50 mg/kg; with male mice (NMRI) [4] (po, 5 min, ED 100, i.g., male mouse) it was 50 mg/kg. In the series with male mice (NMRI) [5], the ED50 strychnine cramp entry is “inactive”. In addition, the ED90 in the series with male mice (NMRI) [8] (ED 90, i.g., male mouse) was found to be 50 mg/kg.

`NCC(CC(=O)O)c1ccc(Cl)cc1` (centres unmarked) [baclofen]: the ED50 is 2 mg/kg with male mice (NMRI) [1] (Mus musculus); 30 mg/kg in the series on male mice (NMRI) [2]; 5 mg/kg with DBA/2j mice (Mus musculus); 100 mg/kg in the series with male mice (NMRI) [3] (Mus musculus); 20 mg/kg with male mice (NMRI) [4] (Mus musculus, po, 5 min, read-out: ED50 electroshock); 8.5 mg/kg in the series with male mice (NMRI) [5]. In addition, the values for the ED50 in the series on male mice (NMRI) [6], in the series with male mice (NMRI) [7] (Mus musculus) and with male mice (NMRI) [8] (Mus musculus) were 20 mg/kg, 20 mg/kg and 4 mg/kg, respectively. In addition, the Side effects result with mice was “Side effects in all models”. In the series “in vivo”, this compound yielded an LD50 at 168 h of 200 mg/kg. For the same compound, the selectivity ratio in the series “in vivo” is 2 to 100.

On to `Cc1cccc(C)c1NC(=O)/C=C1\SCC(=O)N1C` [2 (a), (Z)-(3-Methyl-4-oxothiazolidin-2-ylidene)-N-(2,6-dimethylphenyl)-acetamide], for which the ED50 amounted to 5.32 mg/kg with male mice (NMRI) [1] (setting [9]); 11.3 mg/kg with male mice (NMRI) [2]; 2.9 mg/kg with DBA/2j mice (setting [10]); 19.9 mg/kg in the series on male mice (NMRI) [3] (setting [11]); 13.6 mg/kg in the series on male mice (NMRI) [4] (setting [12]); 14.9 mg/kg with male mice (NMRI) [5]. Moreover, the figures for the 50% effective dose (ED50) in the series on male mice (NMRI) [6], in the series with male mice (NMRI) [7] (setting [13]) and in the series on male mice (NMRI) [8] (setting [14]) were 2.68 mg/kg, 8.7 mg/kg and 14.1 mg/kg, respectively. Further, the LD50 at 168 h in “in vivo” turned out to be 1980 mg/kg. Further, the selectivity ratio in “in vivo” is 99.8 to 739.

For the compound `Cc1cccc(Cl)c1NC(=O)/C=C1\SCC(=O)N1C` [2 (i), (Z)-(3-methyl-4-oxothiazolidin-2-ylidene)-N-(2-chloro-6-methylphenyl)-acetamide], the ED50 worked out at 1.24 mg/kg in the series on male mice (NMRI) [1] (setting [9]); 2.34 mg/kg with male mice (NMRI) [2]; 3 mg/kg in the series on DBA/2j mice (setting [10]); 1.9 mg/kg in the series on male mice (NMRI) [3] (setting [11]); 6.47 mg/kg with male mice (NMRI) [4] (setting [12]); 5.09 mg/kg in the series with male mice (NMRI) [5]. Moreover, the ED50 was 0.9 mg/kg in the series on male mice (NMRI) [6], 1.29 mg/kg with male mice (NMRI) [7] (setting [13]) and 1.59 mg/kg in the series on male mice (NMRI) [8] (setting [14]). Moreover, the median lethal dose (LD50) at 168 h in the series “in vivo” is above 1600 mg/kg. In the series “in vivo”, the selectivity ratio was in the range of 243 to 1780.

`NCCCC(=O)O` [GABA]: in the series with male mice (NMRI) [2], the ED50 picrotoxin cramp entry is “inactive”. Moreover, the ED50 worked out at 500 mg/kg with male mice (NMRI) [3] (setting [11]) and 60 mg/kg with male mice (NMRI) [8] (setting [14]). For the same compound, the ED50 electroshock result in the series on male mice (NMRI) [4] (i.g., male mouse, 35 mA, 0.3 s, observation 5 min) is “inactive”. Moreover, the ED50 strychnine cramp entry in the series on male mice (NMRI) [5] is “inactive”.
